The data set concerns the target SOD1. Particulars: ASO.

“And” between values parts separate entries of the source, which are not always exact repeats. Equal values may be shown once. After the bases stand the sugars from the 5' end (letter, count) and the backbone: PS all phosphorothioate, else s phosphorothioate and o phosphodiester by linkage. Methylation of C is not given here. e = 2'-O-(2-methoxyethyl) (MOE); k = constrained ethyl (cEt); d = 2'-deoxy (DNA)

For the sequence “CCATACAGGGTTTTTAT (sugars e3 k2 d7 k2 e3, PS)”, the target mRNA inhibition (HepG2, 3 µM) was determined as 1%.
In the case of “CCATCTGTGATTTAAGT (sugars e2 k2 d8 k2 e3, PS)”, the target mRNA inhibition (HepG2, 5 µM) was 46%.
Where the note is “HepG2, 5 µM”, “CCATCTGTGATTTAAGT (sugars e2 k2 d9 k2 e2, PS)” showed a target mRNA inhibition of 47%.
Consider “CCATTACTTTCCTTCTG (sugars e3 k2 d7 k2 e3, PS)”, for which the target mRNA inhibition (HepG2, 3 µM) was 37%.
Regarding “CCCACCGTGTTTTCTGGATA (sugars e5 d10 e5, PS)”, the target mRNA inhibition (HepG2, 5 µM) was 46% and 40%.
In the case of “CCCACTCTGGCCCCAAA (sugars e3 k2 d7 k2 e3, PS)”, under “HepG2, 3 µM”, the target mRNA inhibition came out at 15%.
The sequence “CCCATCTGTGATTTAAG (sugars e2 k2 d9 k2 e2, PS)” gave a target mRNA inhibition (HepG2, 5 µM) of 49%.
On to “CCGTCGCCCTTCAGCACGCA (sugars e5 d10 e5, linkages s1 o4 s10 o2 s2)”, for which the target mRNA inhibition is, setting by setting: (A431, 0.062 µM) 12%; (A431, 0.185 µM) 13%; (A431, 0.556 µM) 14%; (A431, 1.667 µM) 4%; (A431, 5 µM) 18%; (A431, 15 µM) 7%. Besides, the target mRNA inhibition runs as follows: (SH-SY5Y, 0.062 µM) 16%; (SH-SY5Y, 0.185 µM) 5%; (SH-SY5Y, 0.556 µM) 19%; (SH-SY5Y, 1.667 µM) 36%; (SH-SY5Y, 5 µM) 68%; (SH-SY5Y, 15 µM) 80%.
With “CGCCATAACTCGCTAGGCCA (sugars e5 d10 e5, PS)”, the target mRNA inhibition (HepG2, 4 µM) was determined as 59%.
The sequence “CGCCCACTCTGGCCCCA (sugars e3 k2 d7 k2 e3, PS)” showed a target mRNA inhibition (HepG2, 3 µM) of 14%.
As for “CGCGACTACTTTATAGG (sugars e3 k2 d7 k2 e3, PS)”, the target mRNA inhibition (HepG2, 3 µM) worked out at 11%.
Where the note is “HepG2, 4 µM”, “CGCTAGGCCACGCCGAGGTC (sugars e5 d10 e5, PS)” displayed a target mRNA inhibition of 52%.
On to “CGCTGCAGGAGACTACGACG (sugars e5 d10 e5, PS)”, for which the target mRNA inhibition (HepG2, 4 µM) was 23%.
For the sequence “CTACAGCTAGCAGGATA (sugars e2 k2 d9 k2 e2, PS)”, the target mRNA inhibition (HepG2, 0.1875 µM) is 30%; the target mRNA inhibition (HepG2, 0.75 µM) was 80%; the target mRNA inhibition (HepG2, 3 µM) is 93%; the target mRNA inhibition (HepG2, 4 µM) came to 91%; the target mRNA inhibition (HepG2, 12 µM) was determined as 97%.
As for “CTACAGCTAGCAGGATA (sugars e3 k2 d7 k2 e3, PS)”, the target mRNA inhibition (HepG2, 0.1875 µM) was 44%; the target mRNA inhibition (HepG2, 0.75 µM) was found to be 62%; the target mRNA inhibition (HepG2, 3 µM) was 55% and 80%; the target mRNA inhibition (HepG2, 12 µM) was found to be 86%.
“CTACAGGTACTTTAAAG (sugars e2 k2 d9 k2 e2, PS)” displayed a target mRNA inhibition (HepG2, 5 µM) of 16%.
For the sequence “CTCACTACAGGTACTTT (sugars e2 k2 d9 k2 e2, PS)”, the target mRNA inhibition (HepG2, 5 µM) amounted to 54%.
For the sequence “CTCAGACTACATCCAAG (sugars e2 k2 d9 k2 e2, PS)”, the target mRNA inhibition is, setting by setting: (HepG2, 0.1875 µM) 0%; (HepG2, 0.75 µM) 40%; (HepG2, 3 µM) 78%; (HepG2, 4 µM) 76%; (HepG2, 12 µM) 92%.
Turning to “CTCAGACTACATCCAAG (sugars e3 k2 d7 k2 e3, PS)”, the target mRNA inhibition is 42% (HepG2, 0.1875 µM); 72% (HepG2, 0.75 µM); 76% and 88% (HepG2, 3 µM); 90% (HepG2, 12 µM).
For the sequence “CTCATAATAAGTGCCAT (sugars e2 k2 d9 k2 e2, PS)”, where the note is “HepG2, 5 µM”, the target mRNA inhibition is 44%.
Turning to “CTCGCTAGGCCACGCCGAGG (sugars e5 d10 e5, PS)”, under “HepG2, 4 µM”, the target mRNA inhibition was found to be 46%.
For the setting “HepG2, 3 µM”, “CTCTTCATCCTTTGGCC (sugars e3 k2 d7 k2 e3, PS)” returned a target mRNA inhibition of 26%.
Sequence “CTGACAAGTTTAATACC (sugars e2 k2 d9 k2 e2, PS)” yielded a target mRNA inhibition (HepG2, 5 µM) of 36%.
“CTGCACTGGGCCGTCGCCCT (sugars e5 d10 e5, PS)”: the target mRNA inhibition (HepG2, 4 µM) was 24%.
“CTGCACTGGTACAGCCTGCT (sugars e5 d10 e5, PS)”: the target mRNA inhibition (HepG2, 5 µM) was 38% and 29%.
Take “CTGCTTTTTCATGGACC (sugars e3 k2 d7 k2 e3, PS)”: the target mRNA inhibition (HepG2, 3 µM) came out at 65%.
Sequence “CTTCACTGGTCCATTAC (sugars e3 k2 d7 k2 e3, PS)” gave a target mRNA inhibition (HepG2, 3 µM) of 11%.
On the same count and under the same terms, the result for “CTTCATCCTTTGGCCCA (sugars e3 k2 d7 k2 e3, PS)” reads 35%.
Take “CTTCCAAGTGATCATAA (sugars e2 k2 d9 k2 e2, PS)”: the target mRNA inhibition (HepG2, 5 µM) turned out to be 54%.
The sequence “CTTTCTTCATTTCCACC (sugars e3 k2 d7 k2 e3, PS)” gave a target mRNA inhibition (HepG2, 3 µM) of 11%.
For “CTTTGGCCCACCGTGTTTTC (sugars e5 d10 e5, PS)”, the target mRNA inhibition (HepG2, 5 µM) is 31% and 15%.
Consider “GAACATGGAATCCATGC (sugars e3 k2 d7 k2 e3, PS)”, for which the target mRNA inhibition (HepG2, 3 µM) came to 9%.
Under “HepG2, 5 µM”, “GAATGACAAAGAAATTCTGA (sugars e5 d10 e5, PS)” came in with a target mRNA inhibition of 0%.
For the sequence “GAATGTTTATTGGGCGA (sugars e2 k2 d9 k2 e2, PS)”, the target mRNA inhibition (HepG2, 4 µM) amounted to 65%.
Where the note is “HepG2, 3 µM”, “GAATGTTTATTGGGCGA (sugars e3 k2 d7 k2 e3, PS)” returned a target mRNA inhibition of 14%.
Under “HepG2, 5 µM”, “GACAAGTTTAATACCCA (sugars e2 k2 d9 k2 e2, PS)” returned a target mRNA inhibition of 59%.
Where the note is “HepG2, 5 µM”, “GACCACCAGTGTGCGGCCAA (sugars e5 d10 e5, PS)” displayed a target mRNA inhibition of 16%.
As for “GACTACATCCAAGGGAA (sugars e2 k2 d8 k2 e3, PS)”, the target mRNA inhibition (HepG2, 4 µM) came out at 50%.
Consider “GACTACATCCAAGGGAA (sugars e2 k2 d9 k2 e2, PS)”, for which the target mRNA inhibition (HepG2, 4 µM) stood at 57%.
Turning to “GAGATCACAGAATCTTC (sugars e3 k2 d7 k2 e3, PS)”, the target mRNA inhibition (HepG2, 3 µM) was 13%.
In turn, “GAGGATTAAAGTGAGGA (sugars e3 k2 d7 k2 e3, PS)” displayed a target mRNA inhibition (HepG2, 3 µM) of 40%.
In turn, “GATACATTTCTACAGC (sugars kekeddddddddekek, linkages s1 o3 s8 o1 s2)” came in with a target mRNA inhibition (A431, 0.12 µM) of 12%; a target mRNA inhibition (A431, 0.6 µM) of 22%; a target mRNA inhibition (A431, 3 µM) of 21%; a target mRNA inhibition (A431, 15 µM) of 34%; a target mRNA inhibition (HepG2, 0.222 µM) of 54%; a target mRNA inhibition (HepG2, 0.667 µM) of 78%. Moreover, the target mRNA inhibition is, setting by setting: (HepG2, 2 µM) 89%; (HepG2, 6 µM) 96%.
“GATACATTTCTACAGCTAGC (sugars e5 d10 e5, PS)”: the target mRNA inhibition runs as follows: (HepG2, 4 µM) 78%; (HepG2, 12 µM) 90%.
Regarding “GATCATAAATCAGTTTC (sugars e2 k2 d9 k2 e2, PS)”, the target mRNA inhibition (HepG2, 5 µM) came out at 38%.
Under “HepG2, 4 µM”, “GATCCCAATTACACCAC (sugars e2 k2 d9 k2 e2, PS)” had a target mRNA inhibition of 58%.
“GCAAAATACAGGTCATT (sugars e3 k2 d7 k2 e3, PS)”: the target mRNA inhibition (HepG2, 3 µM) came out at 43%.
On to “GCACTGGGCCGTCGCCCTTC (sugars e5 d10 e5, PS)”, for which the target mRNA inhibition (HepG2, 4 µM) was determined as 14%.
On to “GCCATACAGGGTTTTTA (sugars e3 k2 d7 k2 e3, PS)”, for which the target mRNA inhibition (HepG2, 3 µM) was found to be 11%.
In the case of “GCCCACTCTGGCCCCAA (sugars e3 k2 d7 k2 e3, PS)”, for the setting “HepG2, 3 µM”, the target mRNA inhibition worked out at 22%.
Turning to “GCCCTTCAGCACGCACA (sugars e2 k2 d8 k2 e3, PS)”, the target mRNA inhibition by setting is: (HepG2, 0.1875 µM) 8%; (HepG2, 0.75 µM) 38%; (HepG2, 3 µM) 74%; (HepG2, 4 µM) 75%; (HepG2, 12 µM) 96%.
As for “GCCCTTCAGCACGCACA (sugars e2 k2 d9 k2 e2, PS)”, the target mRNA inhibition (HepG2, 4 µM) was determined as 60%.
“GCCGTCGCCCTTCAGCA (sugars e2 k2 d9 k2 e2, PS)” returned a target mRNA inhibition (HepG2, 4 µM) of 57%.
As for “GCCTCAGACTACATCCA (sugars e2 k2 d9 k2 e2, PS)”, the target mRNA inhibition reads like this: (HepG2, 0.1875 µM) 34%; (HepG2, 0.75 µM) 59%; (HepG2, 3 µM) 87%; (HepG2, 4 µM) 82%; (HepG2, 12 µM) 95%.
As for “GCGACTACTTTATAGGCCAG (sugars e5 d10 e5, PS)”, where the note is “HepG2, 4 µM”, the target mRNA inhibition was 19%.
As to “GCGATCCCAATTACACC (sugars e2 k2 d8 k2 e3, PS)”, the target mRNA inhibition (HepG2, 4 µM) turned out to be 31%.
As to “GCGCCTCGCCCACTCTGGCC (sugars e5 d10 e5, PS)”, the target mRNA inhibition (HepG2, 4 µM) came out at 33%.
Turning to “GCTTCCCCACACCTTCA (sugars e3 k2 d7 k2 e3, PS)”, the target mRNA inhibition (HepG2, 3 µM) is 36%.
“GGAATGTTTATTGGGCG (sugars e3 k2 d7 k2 e3, PS)”: the target mRNA inhibition (HepG2, 3 µM) was 15%.
For the setting “HepG2, 4 µM”, “GGATAACAGATGAGTTA (sugars e2 k2 d8 k2 e3, PS)” returned a target mRNA inhibition of 63%.
Sequence “GGATAACAGATGAGTTA (sugars e3 k2 d7 k2 e3, PS)” showed a target mRNA inhibition (HepG2, 3 µM) of 32%.
On to “GGATACATTTCTACAGC (sugars e2 k2 d8 k2 e3, PS)”, for which the target mRNA inhibition is 4% (HepG2, 0.1875 µM); 49% (HepG2, 0.75 µM); 72% (HepG2, 3 µM); 75% (HepG2, 4 µM); 87% (HepG2, 12 µM).
Where the note is “HepG2, 3 µM”, “GGATAGAGGATTAAAGT (sugars e3 k2 d7 k2 e3, PS)” yielded a target mRNA inhibition of 14%.
As to “GGATTCTTTTAATAGCC (sugars e2 k2 d8 k2 e3, PS)”, under “HepG2, 5 µM”, the target mRNA inhibition came out at 14%.
In the case of “GGCCCACCGTGTTTTCTGGA (sugars e5 d10 e5, PS)”, under “HepG2, 5 µM”, the target mRNA inhibition is 46% and 41%.
On to “GGCGATCCCAATTACAC (sugars e3 k2 d7 k2 e3, PS)”, for which the target mRNA inhibition (HepG2, 3 µM) was 9%.
“GGGCGATCCCAATTACA (sugars e2 k2 d8 k2 e3, PS)” showed a target mRNA inhibition (HepG2, 4 µM) of 30%.
The same measure, in the same setting: the result for “GGGCGATCCCAATTACA (sugars e2 k2 d9 k2 e2, PS)” reads 30%.

The values above are taken from the OligoGym collection.
